Patent EP1357114A1, “Substituted pyrimidin-2,4(1H,3H)-diones as inhibitors of Matrix Metalloproteinases (MMP)” (IBFB GmbH Privates Institut für biomedizinische Forschung …, priority 2002, dated 2003)

Columns and labels:
[1] = target: T1, katalytische Domäne der MMP-8 (Homo sapiens, UniProt P22894); assay: Quantitative fluorescence assay for matrix metalloproteinases (cleavage of Mca-Pro-Leu-Gly-Leu-Dpa-Ala-Arg-NH2); type: biochemical
T1 construct: dass wir statt des Gesamtenzyms nur dessen enzymatisch aktive katalytische Domäne in E. coli klonierten; made in house; host or cells: E. coli
From the text: Die Nutzung der katalytischen Domäne der MMP-8 als weiteres Testenzym wurde deshalb gewählt, weil es eine hohe Stabilität besitzt und darüber hinaus als aktives Enzym vorliegt. Es muß deshalb nicht aktiviert werden, was eine der häufigsten Fehlerursachen darstellt, da die zur Aktivierung genutzten Quecksilberverbindungen häufig mit dem Testsystem bzw. dem Enzym interferieren und dadurch die Messergebnisse verfälschen werden. Die Klonierungsstrategie gestalteten wir so, dass wir statt des Gesamtenzyms nur dessen enzymatisch aktive katalytische Domäne in E. coli klonierten. Mit der konstruierten katalytischen Domäne der MMP-8 erzielten wir ein stabiles, enzymatisch aktives und hochreines Enzym, welches für die Routineuntersuchungen der inhibitorischen Aktivität der synthetisierten Inhibitoren sehr gut geeignet war und die Messergebnisse der einzelnen Messserien miteinander vergleichbar machte. Die Klonierung und Expression der katalytischen Domäne der MMP-8 wurde entsprechend den Angaben von SCHNIERER et al. (Schnierer S, Kleine T, Gote T, Hillemann A, Knäuper V, Tschesche H: The recombinant catalytic domain of human neutrophil collagenase lacks type I collagen substrate specificity. Biochem Biophys Res Comm (1993) vol. 191 No. 2, 319-326) durchgeführt.
(§1) Durch enzymatische Spaltung des synthetischen Substrates Mca-Pro-Leu-Gly-Leu-Dpa-Ala-Arg-NH2 durch die jeweilige Kollagenase, wird die fluoreszente Gruppe Mca ((7-Methoxycoumarin-4-yl)acetyl) vom internen Quencher Dpa ((N-3-(2,4-dinitrophenyl)-L-2,3-diaminopropienyl) getrennt. Dabei erfolgt eine starke Zunahme der Fluoreszenz im Messansatz, die am Fluorimeter quantifiziert werden kann (λex 328 nm, λem 393 nm) und innerhalb der ersten Minuten linear verläuft. Eine gewisse Spezifität des Tests für Matrix-Metalloproteinasen ergibt sich einerseits aus der Aminosäuresequenz -Pro-Leu-Gly-Leu- im Substrat und andererseits durch die gewählten Inkubationsbedingungen. Matrix-Metalloproteinasen spalten das Substrat an der Bindung Gly-Leu. Gemessen wird die proteolytische Restaktivität vorinkubierter Ansätze von Enzym und Inhibitor, wobei die Substrat- und Enzymkonzentration konstant gehalten und die Inhibitorkonzentration variiert wurde. Es wurden für jeden getesteten Inhibitor drei Messreihen mit unterschiedlicher Substratkonzentration aufgenommen. Aus der zeitabhängigen Fluoreszenzzunahme wird die Enzymaktivität in Fluoreszenzeinheiten pro min berechnet. Die Bestimmung der Ki-Werte erfolgte graphisch nach der Methode von DIXON (1953) durch Auftragung der reziproken Reaktionsgeschwindigkeit 1/v (y-Achse) gegen Inhibitorkonzentration (x-Achse).
(§2) 1984 µl Messpuffer (100mM Tris-HCI pH 7,5, 100 mM NaCI, 10 mM CaCl2, 0,05% Brij 35 bzw. 50 mM MES-NaOH, pH 6.0, 10 mM CaCl2, 100 mM NaCI, 0.05% Brij 35 im Fall der KaDo MMP-3) 2 µl Inhibitor, gelöst in DMSO, bzw. DMSO allein (nichtinhibierender Ansatz) 4 µl Enzym • 5 min. Vorinkubation des Enzym-Inhibitor-Gemischs bei Raumtemperatur unter Rühren • Start der Reaktion mit 10 µl Substrat gelöst in DMSO • Aufzeichnung der zeitabhängigen Fluoreszenzzunahme über 2 - 10 min.

[2] = target: T2, MMP-9 (Homo sapiens, UniProt P14780); assay: as above; type: biochemical; conditions: bei 10 µM
T2 construct: Das latente Enzym wird durch 30 - 60 min; Inkubation bei 37°C mit 1/100 Vol. Trypsin (10 mg/ml) aktiviert; from tissue; host or cells: human buffy coat (blood leukocytes)
Experimental: Native MMP-9 wurde reproduzierbar und in guter Ausbeute und Reinheit aus humanem Buffy Coat gewonnen. Hierzu wird Buffy Coat mit 10% (v/v) Triton X-100 auf eine Endkonzentration von 0,4% gebracht, 30 min. auf Eis geschüttelt und dann 1 Vol. 2-fach Bindungspuffer (40 mM Tris-HCI pH 7,5, 10 mM CaCl2, 1 M NaCI, 0,2% (v/v) Triton X-100) hinzugefügt und weitere 30 min. auf Eis geschüttelt. Die Lösung wird 15 min. bei 16 000 Upm an einem SS-34 Rotor bei 4°C abzentrifugiert und über Glaswolle filtriert. Das Filtrat wird mit Gelatine-Agarose, welche mit Bindungspuffer äquilibriert wurde, gebatcht und 1 Std. auf Eis geschüttelt. Die beladene Gelatine-Agarose wird in eine Säule überführt und mit mindestens 10 Vol. Bindungspuffer proteinfrei gespült. Die Elution der gebundenen MMP-9 erfolgt mit 2 Gelvolumen Bindungspuffer plus 5% (v/v) DMSO. Das Eluat kann zum Puffer-Austausch und gleichzeitiger Abtrennung geringer Verunreinigungen an MMP-2 über eine Gelfiltration an Sephadex G-75 aufgetrennt werden. Hierzu wird der Puffer I (20 mM Tris-HCI pH 7,5, 5 mM CaCl2, 100 mM NaCI, 0,1% (v/v) Triton X-100) verwendet. Das so gewonnene Eluat enthällt MMP-9 in den drei bekannten Zustandsformen: Monomer, Homodimer, Heterodimer. Die Reinheit des Enzyms beträgt ca. 90%, wobei die restlichen Fremdproteine Fibronektin und äußerst geringe Mengen an TIMP's sind. Das latente Enzym wird durch 30 - 60 min. Inkubation bei 37°C mit 1/100 Vol. Trypsin (10 mg/ml) aktiviert. Trypsin wird durch Zugabe von 1 mM PMSF oder mit einem spezifischen Inhibitor (TKI) gehemmt.
as §1, §2

T2 sequence (P14780 107-707 limits assumed): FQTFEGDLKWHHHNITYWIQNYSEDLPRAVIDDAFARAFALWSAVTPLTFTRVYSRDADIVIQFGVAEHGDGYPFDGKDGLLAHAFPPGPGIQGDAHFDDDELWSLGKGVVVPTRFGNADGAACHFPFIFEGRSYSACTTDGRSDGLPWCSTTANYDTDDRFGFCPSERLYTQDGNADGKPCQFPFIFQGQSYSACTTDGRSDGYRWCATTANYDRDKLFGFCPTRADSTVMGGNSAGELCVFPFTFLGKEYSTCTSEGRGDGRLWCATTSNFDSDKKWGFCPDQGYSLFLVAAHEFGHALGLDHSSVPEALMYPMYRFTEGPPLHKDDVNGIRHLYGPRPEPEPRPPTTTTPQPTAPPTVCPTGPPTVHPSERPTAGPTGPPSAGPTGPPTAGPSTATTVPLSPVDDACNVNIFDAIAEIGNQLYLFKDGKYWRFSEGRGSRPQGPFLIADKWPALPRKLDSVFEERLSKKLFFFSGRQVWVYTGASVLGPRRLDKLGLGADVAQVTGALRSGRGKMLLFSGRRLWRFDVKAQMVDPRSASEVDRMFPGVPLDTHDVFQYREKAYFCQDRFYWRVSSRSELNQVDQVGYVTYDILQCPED
T1 sequence (P22894 100-262 limits assumed): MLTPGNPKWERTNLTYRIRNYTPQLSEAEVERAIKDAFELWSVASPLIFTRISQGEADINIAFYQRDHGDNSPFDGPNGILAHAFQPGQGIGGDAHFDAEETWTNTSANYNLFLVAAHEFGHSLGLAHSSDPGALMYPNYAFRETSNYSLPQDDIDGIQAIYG

Row | MMP-8 Hemmung ([1]; bei 10 µM) [% Hemmung bei 10 µM] | SMILES | MMP-9 Hemmung [2] [% Hemmung bei 10 µM] | Ki ([1]; Dixon plot) [µM]
1 | 43 | Cc1cccc2c(=O)n(CC(S)CS)c(=O)[nH]c12 (racemic) [Beispiel 6, (R,S)-3-(2,3-Dimercaptopropyl)-8-methyl-chinazolin-2,4-(1H,3H)dion] | 55 | 
2 |  | CC(S)(CS)Cn1c(=O)[nH]c2ccccc2c1=O (racemic) [Beispiel 2, (R,S)-3-(2,3-Dimercapto-2-methylpropyl)chinazolin-2,4-(1H,3H)dion] | 10 | 60
